# Results reported in article PMC10460880, “Cathepsin K‐Activated Probe for Fluoro‐Photoacoustic Imaging of Early Osteolytic Metastasis” (Advanced Science, 2023).
# Experiments:
# OCs = experiment: Cell selectivity experiment, osteoclasts; type: cell-based; conditions: n = 3
# [1] = system: MDA-MB-231/Luc-induced osteolytic metastasis; experiment: Real-time NIR fluorescence and PA imaging of osteolytic metastasis; type: in vivo, BALB/c nude mice; conditions: 2-CP 50 mM, 200 μL, 1 h before probe; n = 3
# Experimental: page 5: PS. RAW 264.7 cells and BMMs were maintained in an atmosphere of 5% CO2 and 95% humidified air at 37 °C. The medium was changed every day. Cell cytotoxicity assay. MDA-MB-231/Luc and RAW 264.7 cells were seeded in 96-well plates (5×10^3 cells per well) for 24 h and then incubated with CTSK-APPA or CTSK-APP (5, 10, 20, 50 μM) or saline for 24 h. The medium was removed and cells were incubated with CCK-8 (0.5 mg/mL) for another 1 h. The absorbance of the mixture at 450 nm was measured by using a microplate reader. Cell viability was expressed by the ratio of the absorbance of the cells incubated with the probes to that of the cells incubated with culture medium only. In vitro osteoclast differentiation. Bone marrow-derived macrophages were isolated from the femurs and tibias of 4-week-old C57BL/6J mice and cultured in a complete medium containing M-CSF (30 ng/mL) for 4 days. […] Fluorescence images were captured by using the IVIS Spectrum imaging system with excitation at 660 ± 10 nm and emission at 710 ± 10 nm. […] The bone marrow toxicity of CTSK-APPA and CTSK-APP was assessed by blood analyses in mice. […] The red blood count (RBC) and white blood count (WBC) were further measured. […] The supernatants containing excreted probes were quantified by using a UV-vis absorption spectrometer. […]
# [2] = system: CTSK-overexpressing OCs on calf bone slice; experiment: In vitro bone resorption imaging assay; type: cell-based, C57BL/6J mice; conditions: 2-CP 50 mM, 37 °C, 30 min, then CTSK-APPA 5 μM, 2 h
# Experimental: PS. RAW 264.7 cells and BMMs were maintained in an atmosphere of 5% CO2 and 95% humidified air at 37 °C. The medium was changed every day.
# Cell cytotoxicity assay. MDA-MB-231/Luc and RAW 264.7 cells were seeded in 96-well plates (5×10^3 cells per well) for 24 h and then incubated with CTSK-APPA or CTSK-APP (5, 10, 20, 50 μM) or saline for 24 h. The medium was removed and cells were incubated with CCK-8 (0.5 mg/mL) for another 1 h. The absorbance of the mixture at 450 nm was measured by using a microplate reader. Cell viability was expressed by the ratio of the absorbance of the cells incubated with the probes to that of the cells incubated with culture medium only.
# In vitro osteoclast differentiation. Bone marrow-derived macrophages were isolated from the femurs and tibias of 4-week-old C57BL/6J mice and cultured in a complete medium containing M-CSF (30 ng/mL) for 4 days. BMMs were harvested to the 24-well plates (1×10^4 per well) and cultured in the complete medium containing M-CSF (30 ng/mL) and RANKL (100 ng/mL) for another 4 days. The osteoclasts were fixed and stained by using acid phosphatase and a leukocyte kit according to the manufacturer’s procedures.
# In vitro bone resorption imaging assay. […]
# Fluorescence images were captured by using the IVIS Spectrum imaging system with excitation […]
structure (smiles),measurement,setting,value
"N#Cc1ncccn1 [Probe 2-CP, 2-Cyanopyrimidine, reference compound]",effect of inhibitor on CTSK-APPA fluorescence in OCs,OCs,effectively reduced
same,effect of preinjected inhibitor on NIR fluorescence and PA signals of CTSK-APPA,[1],reduced to the CTSK‐APP levels
same,effect of inhibitor pre-treatment on CTSK-APPA fluorescence of bone-resorption slice,[2],remarkably suppressed NIR fluorescence
